Test results taken from patent publication US5063152A, “Synthetic peptidic substrate for determination of trypsin and α1” (Nitto Boseki Co., Ltd., priority 1985, dated 1991).
“And” between values parts separate entries of the source, which are not always exact repeats. Equal entries are not always repeated. Square brackets hold non-standard residues; d marks the D form. Peptide text beside a SMILES is read from it. * marks the point of attachment. pNA = O=[N+]([O-])c1ccc(N*)cc1; Cbz = O=C(OCc1ccccc1)*

Tests used:
[1] = target: T1, Thrombin (TH) (Bos taurus, UniProt P00735); assay: substrate specificity test, reaction with thrombin; assay type: biochemical, Bovine; details: for measured optical density (absorbance), thrombin: initial substrate concentration 2 mmol/l, 37° C., 5 minutes; for relative reactivity of substrate with thrombin: reactivity of PS-1188N taken as 100, initial substrate concentration 2 mmol; for relative reactivity in the case of thrombin: Table 1, PS-1188N = 100
T1 construct: Thrombin; purchased Mochida Pharmaceutical Co., Ltd
Procedure: (§1) The synthetic peptides obtained in Examples 1 and 2 were subjected to a substrate specificity test by reacting with various enzymes under the following conditions.
(§2) 1) substrate solution: 10 mmol/l (concentration)
(§3) 2) buffer solution: tris-HCl buffer
(§4) Concentrations of NaCl, and CaCl2 and pH (at 25° C.) were adjusted as shown in Table 2 depending on enzymes to be reacted: […]
(§5) 4) Reaction stopper solution in the case of pNA: 10% acetic acid
(§6) 5) Color producing reagent for CHA: sodium pentacyanoamine ferroate
(§7) The buffer solution in an amount of 0.3 ml and 0.1 ml of an enzyme solution were placed in a test tube made of hard glass treated with silicon or a test tube made of a plastic (polystyrene) and preheated for 5 minutes in a constant temperature bath maintained at 37° C. Then, 0.1 ml of a substrate solution was added to the test tube and incubated at 37° C. for just 5 minutes. Subsequently, 2.0 ml of the reaction stopper solution (in the case of pNA) or the color producing reagent (in the case of CHA) was added to the reaction solution to terminate the enzymatic reaction. After allowing to stand at 37° C. for 10 minutes, absorbance (optical density) at 405 nm (in the case of pNA) or at 700 nm (in the case of coupled CHA) was measured. The initial substrate concentration was 2 mmol/l.

[2] = target: T2, Plasmin (PL) (Homo sapiens, UniProt P00747); assay: substrate specificity test, reaction with plasmin; assay type: biochemical; details: for measured optical density (absorbance), plasmin: initial substrate concentration 2 mmol/l, 37° C., 5 minutes; for relative reactivity of substrate with plasmin: reactivity of PS-1188N taken as 100, initial substrate concentration 2 mmol; for relative reactivity in the case of plasmin: Table 1, PS-1188N = 100
T2 construct: Plasmin Human; purchased Green Cross Corp
T2 sequence (P00747 581-810 limits assumed): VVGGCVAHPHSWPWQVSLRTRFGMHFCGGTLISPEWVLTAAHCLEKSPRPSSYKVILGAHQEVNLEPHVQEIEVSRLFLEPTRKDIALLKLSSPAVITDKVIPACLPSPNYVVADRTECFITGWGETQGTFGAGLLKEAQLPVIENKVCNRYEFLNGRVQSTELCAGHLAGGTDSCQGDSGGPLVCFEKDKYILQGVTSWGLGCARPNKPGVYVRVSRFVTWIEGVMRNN
T2 sequence (P00747 97-580 partner limits assumed): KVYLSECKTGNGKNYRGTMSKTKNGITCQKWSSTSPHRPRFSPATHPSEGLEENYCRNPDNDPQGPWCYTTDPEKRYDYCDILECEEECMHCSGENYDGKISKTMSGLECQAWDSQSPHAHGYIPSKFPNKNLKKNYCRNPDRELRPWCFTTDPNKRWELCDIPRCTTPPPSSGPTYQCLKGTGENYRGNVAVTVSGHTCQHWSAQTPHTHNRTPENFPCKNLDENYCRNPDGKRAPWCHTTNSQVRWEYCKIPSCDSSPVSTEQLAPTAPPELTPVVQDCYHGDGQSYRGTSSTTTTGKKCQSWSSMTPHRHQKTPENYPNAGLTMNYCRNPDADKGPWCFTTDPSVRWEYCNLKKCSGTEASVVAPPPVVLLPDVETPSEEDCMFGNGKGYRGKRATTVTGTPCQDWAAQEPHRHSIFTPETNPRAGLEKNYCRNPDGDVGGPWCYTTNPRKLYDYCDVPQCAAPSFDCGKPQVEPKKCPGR
Procedure: as §1, §2, §3, §4, §5, §6, §7

[3] = target: T3, Factor Xa (FXa) (Bos taurus, UniProt P00743); assay: substrate specificity test, reaction with factor Xa; assay type: biochemical, Bovine; details: for measured optical density (absorbance), factor Xa: initial substrate concentration 2 mmol/l, 37° C., 5 minutes; for relative reactivity of substrate with factor Xa: reactivity of PS-1188N taken as 100, initial substrate concentration 2 mmol; for relative reactivity in the case of factor Xa: Table 1, PS-1188N = 100
T3 construct: Factor Xa; purchased Sigma Chem. Co
T3 sequence (P00743 234-492 limits assumed): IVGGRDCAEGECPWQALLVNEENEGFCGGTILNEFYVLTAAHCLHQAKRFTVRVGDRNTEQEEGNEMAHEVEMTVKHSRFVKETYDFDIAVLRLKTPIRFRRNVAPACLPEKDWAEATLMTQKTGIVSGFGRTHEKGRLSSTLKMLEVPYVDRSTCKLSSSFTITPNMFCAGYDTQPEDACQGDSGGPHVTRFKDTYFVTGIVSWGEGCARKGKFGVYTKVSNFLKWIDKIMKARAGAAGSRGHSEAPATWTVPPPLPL
T3 sequence (P00743 41-180 partner limits assumed): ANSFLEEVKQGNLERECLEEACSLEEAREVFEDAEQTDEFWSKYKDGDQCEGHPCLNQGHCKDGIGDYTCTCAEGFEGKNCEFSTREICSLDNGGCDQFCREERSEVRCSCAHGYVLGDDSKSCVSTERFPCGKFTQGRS
Procedure: as §1, §2, §3, §4, §5, §6, §7

[4] = target: T4, Trypsin (Try) (Bos taurus, UniProt P00760); assay: substrate specificity test, reaction with trypsin; assay type: biochemical, Bovine; details: for measured optical density (absorbance), trypsin: initial substrate concentration 2 mmol/l, 37° C., 5 minutes; for relative reactivity of substrate with trypsin: reactivity of PS-1188N taken as 100, initial substrate concentration 2 mmol
T4 construct: purchased Worthington
T4 sequence (P00760 24-246): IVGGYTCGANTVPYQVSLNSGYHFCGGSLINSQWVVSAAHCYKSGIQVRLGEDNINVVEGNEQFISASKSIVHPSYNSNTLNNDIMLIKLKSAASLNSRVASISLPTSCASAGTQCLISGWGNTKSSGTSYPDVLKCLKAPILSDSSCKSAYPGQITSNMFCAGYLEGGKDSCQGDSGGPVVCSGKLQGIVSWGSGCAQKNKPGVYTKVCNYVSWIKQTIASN
Procedure: as §1, §2, §3, §4, §5, §6, §7

[5] = target: T5, Urokinase (UK) (Homo sapiens, UniProt P00749); assay: substrate specificity test, reaction with urokinase; assay type: biochemical; details: initial substrate concentration 2 mmol/l, 37° C., 5 minutes
T5 construct: purchased Mochida Pharmaceutical Co., Ltd
Procedure: as §1, §2, §3, §4, §5, §6, §7

[6] = target: T6, Kallikrein (KL) (Sus scrofa, UniProt P00752); assay: substrate specificity test, reaction with kallikrein; assay type: biochemical, Porcine; details: for measured optical density (absorbance), kallikrein: initial substrate concentration 2 mmol/l, 37° C., 5 minutes; for relative reactivity of substrate with kallikrein: reactivity of PS-1188N taken as 100, initial substrate concentration 2 mmol; for relative reactivity in the case of kallikrein: Table 1, PS-1188N = 100
T6 construct: purchased Sigma Chem. Co
T6 sequence (P00752 8-246): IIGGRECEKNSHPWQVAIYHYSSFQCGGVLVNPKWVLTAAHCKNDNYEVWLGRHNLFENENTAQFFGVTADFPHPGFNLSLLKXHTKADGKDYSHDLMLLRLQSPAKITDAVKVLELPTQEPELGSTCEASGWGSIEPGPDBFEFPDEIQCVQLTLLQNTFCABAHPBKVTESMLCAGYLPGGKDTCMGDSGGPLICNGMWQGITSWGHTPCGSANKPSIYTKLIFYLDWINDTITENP
Procedure: as §1, §2, §3, §4, §5, §6, §7

SMILES	measured optical density (absorbance), thrombin ([1]; 405 nm (pNA))	relative reactivity of substrate with thrombin [1]	measured optical density (absorbance), plasmin ([2]; 405 nm (pNA))	relative reactivity of substrate with plasmin [2]	measured optical density (absorbance), factor Xa ([3]; 405 nm (pNA))	relative reactivity of substrate with factor Xa [3]	measured optical density (absorbance), trypsin ([4]; 405 nm (pNA))	relative reactivity of substrate with trypsin [4]	measured optical density (absorbance), urokinase ([5]; 405 nm (pNA))	measured optical density (absorbance), kallikrein ([6]; 405 nm (pNA))	relative reactivity of substrate with kallikrein [6]	relative reactivity in the case of thrombin [1]	relative reactivity in the case of plasmin [2]	relative reactivity in the case of factor Xa [3]	relative reactivity in the case of kallikrein [6]	also measured
CC(C)C[C@H](NC(=O)[C@H]1CCCN1)C(=O)N[C@@H](CCCCN)C(=O)Nc1ccc([N+](=O)[O-])cc1 [PS-1188N, H-D -Pro-Leu-Lys-pNA] (H-[dP]-Leu-Lys-pNA)	0.003	100	0.134	100	0.007	100	0.160	100	0.0	0.032 and 0.039	100					
CC(C)[C@H](NC(=O)OCc1ccccc1)C(=O)NCC(=O)N[C@@H](CCCNC(=N)N)C(=O)Nc1ccc([N+](=O)[O-])cc1 [CHR-TRY, Z-Val-Gly-Arg-pNA] (Cbz-Val-Gly-Arg-pNA)	0.066	2200	0.057	43	0.148	2114	2.601	1626	0.112	0.029	74	2200%	43%	2114%	74%	
CC(C)C[C@H](NC(=O)[C@H]1CCCN1)C(=O)N[C@@H](CCCCN)C(=O)Nc1ccc(O)c(C(=O)O)c1 [PS-1188, H-D -Pro-Leu-Lys-CHA]		0		3		37		86			2	0%	3%	37%	2%	measured optical density (absorbance), thrombin ([1]; 700 nm (coupled CHA)): 0.0; measured optical density (absorbance), plasmin ([2]; 700 nm (coupled CHA)): 0.008; measured optical density (absorbance), factor Xa ([3]; 700 nm (coupled CHA)): 0.006; measured optical density (absorbance), trypsin ([4]; 700 nm (coupled CHA)): 0.314; measured optical density (absorbance), urokinase ([5]; 700 nm (coupled CHA)): 0.001; measured optical density (absorbance), kallikrein ([6]; 700 nm (coupled CHA)): 0.002
